# Where two headings read alike, the source gives them in different places.
# Legend:
# Type in all cases: cell-based
# BRD4 [1] = molecular target: T1, BRD4 (Homo sapiens, UniProt O60885); assay: BRD4 degradation by western blot in A549 cells; design: BRD4 expressed in cells; endogenous in cells
# Procedure: The human lung cancer cell line A549 was purchased from the Korean Cell Line Bank.
# 5×10^5 cells were seeded for each well of the 6 well plate (SPL company), and the cells were cultured with a total of 1.5 mL of the culture medium volume. The cultured cells were treated with various concentrations (0 nM, 0.1 nM, 0.3 nM, 1 nM, 3 nM, 10 nM, 30 nM, 100 nM, 300 nM, 1000 nM, 3000 nM, 10000 nM) of PROTAC compound according to the present invention and cultured for 24 hours.
# For cell lysis, a lysis buffer was added and cell lysate was obtained using a cell scraper.
# Specifically, cells were treated with 70 μl of 1×RIPA buffer containing protease inhibitors. Cell lysate was collected on ice using a scraper and incubated for 30 minutes. Then, cells were centrifuged at 4° C. 15,000 rpm for 30 minutes to obtain a cell lysate.
# The standard curve was obtained using BCA assay, and the protein mass in the lysate was quantified by substituting the standard curve. The mixture was incubated at 37° C. for 30 minutes using a sample solution of 1 μl and a BCA solution of 200 μl. The absorbance was measured at 562 nm. Samples were prepared by adding a sample buffer to reach 10 μg per well.
# SDS-PAGE was conducted by setting a running time of 70 minutes at 110 V in a 4-15% Mini-PROTEAN TGX stain-free gel (15 wells). A transfer was conducted using a trans-blot turbo transfer system (Bio-rad). Blocking was conducted using a blocking-grade blocker (Bio-rad) for 1 hour. Then, it was washed with 1×TBS containing 0.1% tween 20, and reacted with anti-BRD4 antibody (1:3000) or anti-beta-tubulin antibody (1:3000) in bovine serum albumin as a primary antibody at 4° C. for 16 hours. After washing three times for 10 minutes with 1×TBS containing 0.1% tween 20, it was reacted with anti-rabbit antibody (1:10000) in the blotting-grade blocker as a secondary antibody at room temperature for 1 hour. Then, after washing three times for 10 minutes with 1×TBS containing 0.1% tween 20, detection was conducted with SUPERSIGNAL™ WEST PICO PLUS chemiluminescence substrate.
# For result analysis, final blot data were obtained using an image analyzer (GE).
# DC50^1): DC50 value is calculated by comparing band intensity with that of a sample which is not treated with a PROTAC compound as a controlled group.
# DC50^2): DC50 value is calculated by comparing the band intensity relative to that of beta-tubulin with that of the controlled group.
# [2] = system: Human breast cancer cell line [MDA-MB-231]; assay: Anti-proliferative activity (WST-8) of BRD4 targeted PROTAC in MDA-MB-231; details: Homo sapiens, MDA-MB-231, 72 hours
# Procedure: (§1) Human breast cancer cell line [MDA-MB-231] was cultured in RPMI medium with 10% petal bovine serum, penicillin [100 U/ml] and streptomycin [[…]]. The synthesized compound was prepared as a stock solution of 10 mM or 50 mM dissolved in DMSO [dimethyl sulfoxide], and it was sequentially diluted to treat the cell line.
# In order to observe inhibition of cell growth, cells were aliquoted into concentrations of 5,000 cells/well at 96 well plates, and then were treated with samples prepared at various concentrations for 72 hours. The cell survival was calculated by steps of adding in each well […] of water soluble tetrazolium salt (WST-8) which produces formazon in response to dehydrogenase present in the electron transport chain in mitochondria, incubating for 2 hours, measuring the absorbance at 450 nm, and calculating by GraphicPad Prism 8.0 software.
# BRD4 [3] = molecular target: T1, BRD4; assay: BRD4 protein degradation by western blot in MDA-MB-231 cells; design: BRD4 expressed in cells; endogenous in cells; host or cells: MDA-MB-231; details: MDA-MB-231, 24 hours; for DC50: 50% inhibition of protein expression, read-out: DC50 of BRD4-targeted PROTAC
# Procedure: as §1
# To evaluate the PROTAC's degradation ability to BRD4 expressed in cells, the cells were aliquoted into a 6 well plate at a concentration of 5×10^5 cells/ml, and then the sample was treated for 24 hours. In order to conduct western blotting assay to confirm protein expression, the cell treated with the compound was treated for 30 minutes with 70 μL of RIPA buffer wherein protease inhibitor is added. Then, cell lysate was collected on ice using a scraper and centrifuged at 4° C. 15,000 rpm for 30 minutes to obtain a supernatant containing protein. Then, SDS-PAGE is conducted for 10 μg of protein per each sample, and the protein is transferred to a membrane. The protein is reacted with antibodies of anti-BRD4, anti-tubulin and anti-GAPDH at 4° C. for 16 hours, and then, reacted with secondary antibodies at room temperature for 1 hour. The protein expression is confirmed using SUPERSIGNAL™ WEST PICO PLUS chemiluminescence substrate and image analyzer. The protein expression was normalized based on the expression value of β-tublin or GAPDH. The amount of protein expression in each sample was measured in % based on the sample treated with 0.1% DMSO vehicle which was set to 100%. The amount of protein expression was quantified using the IMAGE J PROGRAM. The change in the amount of protein expression due to the treatment of compound (DC50: the concentration of compounds where the 50% inhibition of protein expression is achieved) was calculated using […] PRISM 8.0 software.
# [4] = A549, 24 hours; band intensity compared with untreated control; read-out: DC50 1)
# [5] = A549, 24 hours; band intensity relative to beta-tubulin compared with control; read-out: DC50 2)
# [6] = WST-8, read-out: IC50 of BRD4-targeted PROTAC (cell proliferation)
# [7] = read-out: concentration at which cancer cell proliferation is effectively inhibited
Compound,DC50 (BRD4 [1]; [4]) [nM],DC50 (BRD4 [1]; [5]) [nM],"IC50 [2, 6] [nM]","IC50 [2, 7] [nM]",BRD4 degradation (in words) (BRD4 [3]),DC50 (BRD4 [3]) [nM]
"Cc1sc2c(c1C)C(c1ccc(Cl)cc1)=N[C@@H](CC(=O)Nc1ccc(OCCOCCOCCNc3ccc4c(=O)n(C5CCC(=O)NC5=O)ncc4c3)cc1)c1nnc(C)n1-2 (stereo partly drawn) [Ex. 25, 2-((S)-4-(4-chlorophenyl)-2,3,9-trimethyl-6H-thieno[3,2-f][1,2,4]triazolo[4,3-a][1,4]diazepin-6-yl)-N-(4-(2-(2-(2-((2-(2,6-dioxopiperidin-3-yl)-1-oxo-1,2-dihydrophthalazin-6-yl)amino)ethoxy)ethoxy)ethoxy)phenyl)acetamide]",56.9,49.6,232,–,–,–
"Cc1sc2c(c1C)C(c1ccc(Cl)cc1)=N[C@@H](CC(=O)Nc1cccc(OCCOCCOCCNc3cccc4cnn(C5CCC(=O)NC5=O)c(=O)c34)c1)c1nnc(C)n1-2 (stereo partly drawn) [Ex. 23, 2-((S)-4-(4-chlorophenyl)-2,3,9-trimethyl-6H-thieno[3,2-f][1,2,4]triazolo[4,3-a][1,4]diazepin-6-yl)-N-(3-(2-(2-(2-((3-(2,6-dioxopiperidin-3-yl)-4-oxo-3,4-dihydrophthalazin-5-yl)amino)ethoxy)ethoxy)ethoxy)phenyl)acetamide]",11.3,10.9,32.2,< 250,effectively degraded,2.6
"Cc1sc2c(c1C)C(c1ccc(Cl)cc1)=N[C@@H](CC(=O)Nc1ccc(OCCOCCOCCOCCNc3ccc4c(=O)n(C5CCC(=O)NC5=O)ncc4c3)cc1)c1nnc(C)n1-2 (stereo partly drawn) [Ex. 28, 2-((S)-4-(4-chlorophenyl)-2,3,9-trimethyl-6H-thieno[3,2-f][1,2,4]triazolo[4,3-a][1,4]diazepin-6-yl)-N-(4-(2-(2-(2-(2-((2-(2,6-dioxopiperidin-3-yl)-1-oxo-1,2-dihydrophthalazin-6-yl)amino)ethoxy)ethoxy)ethoxy)ethoxy)phenyl)acetamide]",25.3,299,33.1,< 250,effectively degraded,3.3
"Cc1sc2c(c1C)C(c1ccc(Cl)cc1)=N[C@@H](CC(=O)Nc1ccc(OCCOCCOCCNc3ccc4cnn(C5CCC(=O)NC5=O)c(=O)c4c3)cc1)c1nnc(C)n1-2 (stereo partly drawn) [Ex. 26, 2-((S)-4-(4-chlorophenyl)-2,3,9-trimethyl-6H-thieno[3,2-f][1,2,4]triazolo[4,3-a][1,4]diazepin-6-yl)-N-(4-(2-(2-(2-((3-(2,6-dioxopiperidin-3-yl)-4-oxo-3,4-dihydrophthalazin-6-yl)amino)ethoxy)ethoxy)ethoxy)phenyl)acetamide]",22,568,126,–,–,–
"Cc1sc2c(c1C)C(c1ccc(Cl)cc1)=N[C@@H](CC(=O)Nc1ccc(OCCOCCOCCOCCNc3cccc4cnn(C5CCC(=O)NC5=O)c(=O)c34)cc1)c1nnc(C)n1-2 (stereo partly drawn) [Ex. 27, 2-[(9S)-7-(4-chlorophenyl)-4,5,13-trimethyl-3-thia-1,8,11,12-tetraazatricyclo[8.3.0.0^2,6]trideca-2(6),4,7,10,12-pentaen-9-yl]-N-[4-(2-{2-[2-(2-{[3-(2,6-dioxopiperidin-3-yl)-4-oxo-3,4-dihydrophthalazin-5-yl]amino}ethoxy)ethoxy]ethoxy}ethoxy)phenyl]acetamide]",9.21,11.9,640,–,–,–

# Source: patent publication US12384756B2, “Piperidinedione derivatives” (INNOCURE THERAPEUTICS, INC., priority 2021, dated 2025)
